In ChEMBL document CHEMBL1201862, “PubChem BioAssay data set” (2004):
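All cell lines were grown in 96-well plates and treated with compound for 48 hours. GI50: concentration for 50% inhibition of growth.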 The source made the active and inactive calls. Cut-off read from the data, not from the text of the source: active = GI50 up to about 1.1 µM and inactive = higher.

How the values were obtained:
Assay in all cases: inhibition of tumour cell growth, NCI panel, 48 h
HCC 2998 = tested on: HCC 2998
UACC-62 = tested on: UACC-62
LOX IMVI = tested on: LOX IMVI
K562 = tested on: K562
CCRF-CEM = tested on: CCRF-CEM
U-251 = tested on: U-251
SF-539 = tested on: SF-539
A549 = tested on: A549
SK-MEL-5 = tested on: SK-MEL-5
SF-268 = tested on: SF-268
KM12 = tested on: KM12
NCI-H226 = tested on: NCI-H226
SNB-19 = tested on: SNB-19
UO-31 = tested on: UO-31
M14 = tested on: M14
HT-29 = tested on: HT-29
SW-620 = tested on: SW-620
HOP-62 = tested on: HOP-62
MCF7 = tested on: MCF7

SMILES | GI50 (HCC 2998) | GI50 (UACC-62) | GI50 (LOX IMVI) | GI50 (K562) | GI50 (CCRF-CEM) | GI50 (U-251) | GI50 (SF-539) | GI50 (A549) | GI50 (SK-MEL-5) | GI50 (SF-268) | GI50 (KM12) | GI50 (NCI-H226) | GI50 (SNB-19) | GI50 (UO-31) | GI50 (M14) | GI50 (HT-29) | GI50 (SW-620) | GI50 (HOP-62) | GI50 (MCF7)
O=c1nc(N2CCCC2)nc(N2CCCC2)s1 | > 100 µM (inactive) | > 100 µM (inactive) | > 100 µM (inactive) | > 100 µM (inactive) | > 100 µM (inactive) | > 100 µM (inactive) | > 100 µM (inactive) | > 100 µM (inactive) | > 100 µM (inactive) | > 100 µM (inactive) | > 100 µM (inactive) | 7.21 µM (inactive) | > 100 µM (inactive) | 78.7 µM (inactive) | > 100 µM (inactive) | > 100 µM (inactive) | > 100 µM (inactive) | > 100 µM (inactive) | 
C1=CC2CCC1CN2CCC1CNc2ccccc21 (stereo unspecified) | > 100 µM (inactive) | > 100 µM (inactive) | > 100 µM (inactive) | > 100 µM (inactive) | > 100 µM (inactive) | > 100 µM (inactive) | > 100 µM (inactive) | > 100 µM (inactive) |  | > 100 µM (inactive) | > 100 µM (inactive) | > 100 µM (inactive) | > 100 µM (inactive) | 64.9 µM (inactive) | > 100 µM (inactive) | > 100 µM (inactive) | > 100 µM (inactive) | > 100 µM (inactive) | 
COc1cc(C2[C@H]3C(=O)N(c4ccc(Cc5ccc(N6C(=O)[C@@H]7ON(c8ccccc8)C(c8cc(OC)c(OC)c(OC)c8)[C@@H]7C6=O)cc5)cc4)C(=O)[C@H]3ON2c2ccccc2)cc(OC)c1OC (stereo partly specified) | > 100 µM (inactive) | 95.3 µM (inactive) | > 100 µM (inactive) | > 100 µM (inactive) | > 100 µM (inactive) | > 100 µM (inactive) | > 100 µM (inactive) | > 100 µM (inactive) | 38.5 µM (inactive) | > 100 µM (inactive) | > 100 µM (inactive) | > 100 µM (inactive) | > 100 µM (inactive) | > 100 µM (inactive) | 17 µM (inactive) | > 100 µM (inactive) | > 100 µM (inactive) | > 100 µM (inactive) | 
Cn1cnc(S[C@H]2[C@H]3C(=O)C=C4S[C@H]5C[C@]42C2=C(N5)C(=O)c4[nH]cc5c4C2=[N+]3CC5)c1C[C@H](N)C(=O)O | 16.2 µM (inactive) | 15.7 µM (inactive) | 13.1 µM (inactive) | 17.3 µM (inactive) | 17.1 µM (inactive) | 17.2 µM (inactive) | 16.5 µM (inactive) | 20.4 µM (inactive) | 13.4 µM (inactive) | 12.1 µM (inactive) | 16.7 µM (inactive) | 19.4 µM (inactive) | 17.6 µM (inactive) | 17.5 µM (inactive) | 15.4 µM (inactive) | 4.09 µM (inactive) | 6.14 µM (inactive) |  | 
Nc1c(C(=O)NC23CC4CC(CC(C4)C2)C3)[n+]([O-])c2ccccc2[n+]1[O-] | > 100 µM (inactive) | > 100 µM (inactive) | > 100 µM (inactive) | > 100 µM (inactive) | > 100 µM (inactive) | > 100 µM (inactive) | > 100 µM (inactive) | > 100 µM (inactive) | > 100 µM (inactive) | > 100 µM (inactive) | > 100 µM (inactive) | > 100 µM (inactive) | > 100 µM (inactive) | > 100 µM (inactive) | > 100 µM (inactive) | > 100 µM (inactive) | > 100 µM (inactive) | > 100 µM (inactive) | 
Cc1c2ccncc2c(C)c2c1[nH]c1ccc(OC(C)C)cc12 | 2.03 µM (inactive) |  | 1.18 µM (inactive) | 1.13 µM (inactive) | 1.15 µM (inactive) | 1.38 µM (inactive) | 1.82 µM (inactive) | 1.52 µM (inactive) | 1.77 µM (inactive) | 1.43 µM (inactive) | 1.35 µM (inactive) | 1.63 µM (inactive) | 1.59 µM (inactive) | 1.53 µM (inactive) | 1.6 µM (inactive) | 1.32 µM (inactive) | 0.547 µM (active) | 1.35 µM (inactive) | 
COC1O[C@@H]2CCN3C(=O)[C@@H](OC(=O)c4ccc([N+](=O)[O-])cc4)[C@H]1C23 (stereo partly specified) | > 100 µM (inactive) | > 100 µM (inactive) | > 100 µM (inactive) | > 100 µM (inactive) | > 100 µM (inactive) | > 100 µM (inactive) | > 100 µM (inactive) | > 100 µM (inactive) | > 100 µM (inactive) | > 100 µM (inactive) | > 100 µM (inactive) | > 100 µM (inactive) |  | > 100 µM (inactive) | > 100 µM (inactive) | > 100 µM (inactive) | > 100 µM (inactive) | > 100 µM (inactive) | > 100 µM (inactive)
CC1(C)CC(=O)C(CC2C(=O)CCCC2=O)C(=O)C1 | > 100 µM (inactive) | > 100 µM (inactive) | > 100 µM (inactive) | > 100 µM (inactive) | > 100 µM (inactive) | > 100 µM (inactive) | > 100 µM (inactive) | > 100 µM (inactive) | > 100 µM (inactive) | > 100 µM (inactive) | > 100 µM (inactive) | > 100 µM (inactive) | > 100 µM (inactive) | > 100 µM (inactive) | > 100 µM (inactive) | > 100 µM (inactive) | > 100 µM (inactive) | > 100 µM (inactive) | 
